Measurements: patent US8710224B2, “Heterocyclic compounds as CCR2B antagonists” (AstraZeneca AB, priority 2004, dated 2014)

Target: T1, recombinant human CCR5 receptor (Homo sapiens, UniProt P51681)
T1 construct: expressed in transfected cells; host or cells: Chinese hamster ovary (CHO) cells; membranes
Test: Radioligand binding assay for inhibition of the binding of MIP-1α
Settings: displacement of 0.1 nM iodinated MIP-1α; membranes of Chinese hamster ovary cells expressing CCR5
Experimental: Biological Assay for the Ability of Compounds to Inhibit the Binding of MIP-1α This ability is assessed using an in vitro radioligand binding assay. Membranes are prepared from Chinese hamster ovary cells which express the recombinant human CCR5 receptor. These membranes are incubated with 0.1 nM iodinated MIP-1α, scintillation proximity beads and various concentrations of the compounds of the invention in 96-well plates. The amount of iodinated MIP-1α bound to the receptor is then determined by scintillation counting.

T1 sequence (P51681 whole entry): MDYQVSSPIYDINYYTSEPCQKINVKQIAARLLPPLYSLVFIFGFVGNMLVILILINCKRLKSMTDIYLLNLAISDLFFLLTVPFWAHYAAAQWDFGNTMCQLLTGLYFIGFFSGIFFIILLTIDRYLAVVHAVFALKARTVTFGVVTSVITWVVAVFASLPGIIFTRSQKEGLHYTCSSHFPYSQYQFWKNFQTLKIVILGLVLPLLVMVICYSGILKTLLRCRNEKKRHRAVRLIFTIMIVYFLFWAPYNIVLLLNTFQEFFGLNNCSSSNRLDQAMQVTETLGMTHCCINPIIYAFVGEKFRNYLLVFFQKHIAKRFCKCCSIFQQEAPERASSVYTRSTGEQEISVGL

SMILES | IC50 [µM]
O=C(Nc1ccc(Cl)c(Cl)c1)N1CCN(C(=O)[C@H]2CN(CCc3ccccc3)CCN2)CC1 [Example 138, N-(3,4-Dichlorophenyl)-4-{[(2R)-4-(2-phenylethyl)piperazin-2-yl]carbonyl}piperazine-1-carboxamide] | < 10
O=C(Nc1ccc(Cl)c(Cl)c1)N1CCN(C[C@@H]2CCCN(C3CCC(O)CC3)C2)CC1 (stereo partly drawn) [Example 145, N-(3,4-dichlorophenyl)-4-{[(3S)-1-(4-hydroxycyclohexyl)piperidin-3-yl]methyl}piperazine-1-carboxamide] | < 10
O=C(Nc1ccc(Cl)c(Cl)c1)N1CCN(C(=O)C2CCN([C@H]3CC[C@](O)(c4ccccn4)CC3)C2)CC1 (some centres unmarked) [Example 146, N-(3,4-dichlorophenyl)-4-{[1-(4-hydroxy-4-pyridin-2-ylcyclohexyl)pyrrolidin-3-yl]carbonyl}piperazine-1-carboxamide] | < 10
O=C(Nc1ccc(Cl)c(Cl)c1)N1CCN(C(=O)C2CCN([C@H]3CC[C@](O)(c4ccncc4)CC3)C2)CC1 (stereo partly drawn) [Example 147, N-(3,4-dichlorophenyl)-4-{[1-(cis-4-hydroxy-4-pyridin-4-ylcyclohexyl)pyrrolidin-3-yl]carbonyl}piperazine-1-carboxamide] | < 10
O=C(Nc1ccc(Cl)c(Cl)c1)N1CCN(C(=O)C2CCN(C3CCC(O)(c4nccs4)CC3)C2)CC1 (stereo not drawn) [Example 148, N-(3,4-dichlorophenyl)-4-({1-[cis-4-hydroxy-4-(1,3-thiazol-2-yl)cyclohexyl]pyrrolidin-3-yl}carbonyl)piperazine-1-carboxamide] | < 10
O=C(Nc1ccc(Cl)c(Cl)c1)N1CCN(CC2CCN([C@H]3CC[C@](O)(c4ccncc4)CC3)C2)CC1 (some centres unmarked) [Example 150, N-(3,4-dichlorophenyl)-4-{[1-(4-hydroxy-4-pyridin-4-ylcyclohexyl)pyrrolidin-3-yl]methyl}piperazine-1-carboxamide] | < 10
O=C(Nc1ccc(Cl)c(Cl)c1)N1CCN(C[C@@H]2CCCN(CC(c3ccccc3)c3ccccc3)C2)CC1 [Example 153, N-(3,4-Dichlorophenyl)-4-{[(3R)-1-(2,2-diphenylethyl)piperidin-3-yl]methyl}piperazine-1-carboxamide] | < 10
O=C(Nc1ccc(Cl)c(Cl)c1)N1CCN(C[C@@H]2CCCN(CCc3ccc(Cl)cc3)C2)CC1 [Example 154, 4-({(3R)-1-[2-(4-Chlorophenyl)ethyl]piperidin-3-yl}methyl)-N-(3,4-dichlorophenyl)piperazine-1-carboxamide] | < 10
O=C(Nc1ccc(Cl)c(Cl)c1)N1CCN(C[C@@H]2CCCN(C3Cc4ccccc4C3)C2)CC1 [Example 161, N-(3,4-dichlorophenyl)-4-{[(3S)-1-(2,3-dihydro-1H-inden-2-yl)piperidin-3-yl]methyl}piperazine-1-carboxamide] | < 10

Second part, the molecule after the results:

IC50 [µM] | SMILES
< 10 | CCN1CCN[C@@H](C(=O)N2CCN(C(=O)Nc3ccc(Cl)cc3)CC2)C1 [Example 131, N-(4-Chlorophenyl)-4-{[(2R)-4-ethylpiperazin-2-yl]carbonyl}piperazine-1-carboxamide]
< 10 | CCN1CCN[C@@H](C(=O)N2CCN(C(=O)Nc3cccc(Cl)c3)CC2)C1 [Example 132, N-(3-Chlorophenyl)-4-{[(2R)-4-ethylpiperazin-2-yl]carbonyl}piperazine-1-carboxamide]
< 10 | CCN1CCN[C@@H](C(=O)N2CCN(C(=O)Nc3ccc(Cl)c(Cl)c3)CC2)C1 [Example 133, N-(3,4-Dichlorophenyl)-4-{[(2R)-4-ethylpiperazin-2-yl]carbonyl}piperazine-1-carboxamide]
< 10 | CC(C)N1CCN[C@@H](C(=O)N2CCN(C(=O)Nc3ccc(Cl)c(Cl)c3)CC2)C1 [Example 134, N-(3,4-dichlorophenyl)-4-{[(2R)-4-isopropylpiperazin-2-yl]carbonyl}piperazine-1-carboxamide]
< 10 | O=C(Nc1ccc(Cl)c(Cl)c1)N1CCN(C(=O)[C@H]2CN(C3CC3)CCN2)CC1 [Example 135, 4-[(2R)(4-Cyclopropylpiperazin-2-yl)carbonyl]-N-(3,4-dichlorophenyl)piperazine-1-carboxamide]
